Test results taken from article PMC5117956 (Drug Design, Development and Therapy, 2016).

Legend:
[1] = In vivo PK experiment: oral SQV with or without oral RESV; set-up: species or system rat; settings: rats
[2] = low solubility and high permeability; cited from earlier work
[3] = clinical practice; cited from earlier work

Structure (SMILES) | Effect of coadministration on Cmax of SQV ([1]; RESV 20 mg/kg oral with SQV 30 mg/kg oral, P>0.05) | Biopharmaceutics Classification System class [2] | Time of first peak in plasma levels ([1]; SQV 30 mg/kg oral, RESV (20 mg/kg) treatment group) [h] | Time of second peak in plasma levels ([1]; SQV 30 mg/kg oral, both groups (with or without RESV 20 mg/kg)) | Time of first peak in plasma levels ([1]; SQV 30 mg/kg oral, control group) | Coefficient of variation (CV) of oral bioavailability [3] [%] | Oral bioavailability [3]
Oc1ccc(/C=C/c2cc(O)cc(O)c2)cc1 [RESV, resveratrol] | not significantly affected |  |  |  |  |  | 
CC(C)(C)NC(=O)[C@@H]1C[C@@H]2CCCC[C@@H]2CN1C[C@@H](O)[C@H](Cc1ccccc1)NC(=O)[C@H](CC(N)=O)NC(=O)c1ccc2ccccc2n1 [SQV, saquinavir] |  | class II | ~0.25 | ~ 4 h | ~ 0.5 h | > 100 | ~ 4%
